We go through 17 compounds from PubChem BioAssay (NCI).

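How tested: cells in 96-well plates exposed to compound for 48 hours at five concentrations. At the TGI there is no net growth.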 Where a SMILES comes first, the peptide text is derived from it. [ ]: non-standard residue; d: D form. pGlu = O=C1CC[CH](C(=O)O)N1

Some test systems named below: 786-0 renal; DU-145 prostate; HL-60(TB) leukemia; HOP-62 NSCLC; HT29 colon; MCF7 breast; RPMI-8226 leukemia; T-47D breast; A498 renal.
What all share (test): inhibition of tumour cell growth, NCI panel, 48 h

As for `CC(NC(=O)C(Cc1cnc[nH]1)NC(=O)C1CCC(=O)N1)C(N)=O` (stereo not drawn) ([pGlu]-His-Ala-NH2; configuration not given here), the TGI in the test on 786-0 renal, in the test on DU-145 prostate, in the test with HL-60(TB) leukemia, with HOP-62 NSCLC, with HT29 colon and with MCF7 breast was greater than 100 µM throughout. In addition, the TGI with RPMI-8226 leukemia and in the test with T-47D breast was greater than 100 µM throughout.
Turning to `CC(C)(C)OC(=O)N1Cc2cc(O)ccc2C[C@H]1C(=O)O`, the TGI in the test with 786-0 renal, in the test with A498 renal, with DU-145 prostate, in the test with HL-60(TB) leukemia, in the test on HOP-62 NSCLC and in the test with HT29 colon was greater than 100 µM throughout. In addition, the TGI in the test with MCF7 breast and with T-47D breast was greater than 100 µM in each case.
Turning to `COc1cc([C@@H]2c3cc4c(cc3[C@@H](N=Cc3ccc(C(=O)O[C@@H](C(=O)O[C@H]5C[C@@]6(O)[C@@H](OC(=O)c7ccccc7)[C@@H]7[C@]8(OC(C)=O)CO[C@@H]8C[C@H](O)[C@@]7(C)C(=O)[C@H](OC(C)=O)C(=C5C)C6(C)C)[C@@H](NC(=O)c5ccccc5)c5ccccc5)cc3)[C@H]3COC(=O)[C@H]23)OCO4)cc(OC)c1O`, the TGI was greater than 50 µM with 786-0 renal; 26.2 µM in the test on A498 renal; greater than 42.5 µM in the test on DU-145 prostate; 0.182 µM with HL-60(TB) leukemia; greater than 50 µM in the test on HOP-62 NSCLC; 1.92 µM in the test on HT29 colon. Moreover, the TGI is 7.38 µM in the test with MCF7 breast and greater than 50 µM with T-47D breast.
For `Cc1c(O)c(=O)ccn1CCc1c[nH]c2ccccc12`, the TGI in the test with 786-0 renal was 9.06 µM; in the test with DU-145 prostate, 35.4 µM; in the test with HL-60(TB) leukemia, 53.3 µM; with HOP-62 NSCLC, greater than 100 µM; in the test with HT29 colon it was 32.7 µM; with MCF7 breast, 33.2 µM. The TGI with RPMI-8226 leukemia worked out at 29.8 µM; in the test with T-47D breast, 78 µM.
As to `Cc1cc(C)c2c(=N)c3ccccc3n(CCCCCCn3c4ccccc4c(=N)c4c(C)cc(C)nc43)c2n1`, the TGI in the test on 786-0 renal came to 0.816 µM; with A498 renal it was 3.12 µM; with DU-145 prostate, 3.13 µM; in the test on HOP-62 NSCLC it was 1.44 µM; in the test on HT29 colon, 1.68 µM; in the test on T-47D breast it was 3.65 µM.
For the compound `COc1cc(C2c3cc4c(cc3OC3(OC)COC(=O)C23)OCO4)cc(OC)c1OC` (configuration not stated), the TGI with 786-0 renal was greater than 27.1 µM; in the test on A498 renal it was 2.38 µM; in the test on DU-145 prostate, 6.51 µM; in the test with HL-60(TB) leukemia, 13.6 µM; in the test on HOP-62 NSCLC it was greater than 100 µM; in the test with HT29 colon, 0.804 µM. Besides, the TGI was greater than 56.8 µM in the test on MCF7 breast and greater than 100 µM in the test on T-47D breast.
Turning to `Cn1c(N=[N+]=[N-])cc(=O)n(C)c1=O`, the TGI in the test on 786-0 renal, with A498 renal, in the test with HOP-62 NSCLC, in the test on HT29 colon, in the test with RPMI-8226 leukemia and with T-47D breast was greater than 100 µM in each case.
With `Clc1ccc2nc(CC3CCCC3)[nH]c2c1`, the TGI came to 33.4 µM with 786-0 renal; 54.6 µM in the test with DU-145 prostate; 32.7 µM with HOP-62 NSCLC; 33.5 µM in the test with HT29 colon; 22 µM in the test on MCF7 breast; 50.3 µM with RPMI-8226 leukemia. Further, in the test with T-47D breast, the TGI amounted to 72.5 µM.
On to `Cc1ccc(C(=O)C2=CN=C3C(=O)N(c4ccccc4)N(C)C3(C)C2=N)cc1` (configuration not stated), for which the TGI with 786-0 renal, with A498 renal, in the test with DU-145 prostate, in the test on HL-60(TB) leukemia, with MCF7 breast and with RPMI-8226 leukemia was greater than 100 µM in each case.
For `CN1CCN(/C(N)=C(\C#N)C(=O)Nc2ccccc2)CC1`, the TGI in the test with 786-0 renal, in the test with A498 renal, in the test on DU-145 prostate, in the test with HOP-62 NSCLC, with MCF7 breast and with RPMI-8226 leukemia was greater than 100 µM each time. The TGI with T-47D breast is greater than 100 µM.
In the case of `COc1ccc(NCc2cnc3nc(N)nc(N)c3c2C)cc1`, the TGI in the test with 786-0 renal, in the test with A498 renal, with HL-60(TB) leukemia, in the test with HOP-62 NSCLC, in the test with HT29 colon and in the test on MCF7 breast was greater than 100 µM each time. The results for the TGI in the test with RPMI-8226 leukemia and in the test on T-47D breast were greater than 100 µM and greater than 92.8 µM, respectively.
Regarding `CC(C)=CCCC1(Sc2ccccc2)C(=O)OCC1C=C(C)C` (configuration not stated), the TGI in the test with 786-0 renal is 73.7 µM; in the test on A498 renal, greater than 100 µM; with HOP-62 NSCLC, greater than 100 µM; with MCF7 breast it was greater than 100 µM; in the test on RPMI-8226 leukemia, 48.1 µM; with T-47D breast, greater than 100 µM.
With `CC(=O)NC(C)c1ccc(N=NN2CCCC2)cc1` (configuration not stated), the TGI in the test with 786-0 renal, in the test on A498 renal, with DU-145 prostate, in the test with HL-60(TB) leukemia, in the test on HOP-62 NSCLC and in the test on HT29 colon was greater than 100 µM in each case. Moreover, the TGI in the test with MCF7 breast and in the test with T-47D breast was greater than 100 µM each time.
As to `CC1CC(=O)Nc2ccc(N=NN(C)C)cc2N1C=O` (configuration not stated), the TGI in the test on 786-0 renal, in the test on DU-145 prostate, with HOP-62 NSCLC, with HT29 colon, with MCF7 breast and with RPMI-8226 leukemia was greater than 100 µM each time. The compound also gave a TGI in the test on T-47D breast greater than 100 µM.
As to `COc1cc2c(cc1OC(=O)c1cc3ccccc3[nH]1)N=C[C@@H]1CCCN1C2=O`, the TGI was 4.23 µM with 786-0 renal; 0.599 µM in the test on A498 renal; 11.7 µM with DU-145 prostate; 4.36 µM in the test with HOP-62 NSCLC; 0.36 µM with HT29 colon; 13 µM with MCF7 breast. Moreover, the TGI in the test with RPMI-8226 leukemia stood at 1.95 µM; with T-47D breast it was 6.25 µM.
On to `CCC/C(Cl)=N\OC(=O)Nc1ccc(F)c([N+](=O)[O-])c1`, for which the TGI in the test with 786-0 renal stood at 40 µM; with A498 renal it was 48.4 µM; in the test on DU-145 prostate, 28.6 µM; in the test with HOP-62 NSCLC, 34.9 µM; with HT29 colon, 45.3 µM; in the test on MCF7 breast, 75.5 µM. In addition, the TGI with RPMI-8226 leukemia is greater than 100 µM.
As to `CCOC(=O)C1C[C@H]2CO[C@H](c3ccccc3)N2C1=O` (some centres not stated), the TGI in the test on 786-0 renal, in the test with DU-145 prostate, in the test on HT29 colon, in the test with MCF7 breast, in the test with RPMI-8226 leukemia and with T-47D breast was greater than 100 µM throughout.
